From patent US20250188092A1, “RIFAMYCIN ANALOGS” (THE REGENTS OF THE UNIVERSITY OF MICHIGAN, priority 2021, published 2025)
In brackets after ≈: the same amount, converted by molar mass.

What was measured:
[1] = test system: M. tuberculosis transformed with luxABCDE; experiment: microbe, parasite or virus in culture; format: cell-based, Mycobacterium tuberculosis; settings: for MBC: ≥99% reduction in luminescence, read-out: MBC99 Day 7 (Lux Assay) MBC
β-S450L (RIF^R) MTB RNAP = β-S450L (RIF^R) MTB RNAP (Mycobacterium tuberculosis, UniProt P9WGY9, S456L); settings: read-out: RNAP IC50 MTB S450L
[2] = test system: non-replicating cultures of M. tuberculosis H37Rv transformed with lux ABCDE; experiment: microbe, parasite or virus in culture; format: cell-based, Mycobacterium tuberculosis; settings: for MIC90: ≥90% reduction in luminescence, read-out: MIC90 LORA; for MIC90 LORA/MABA: ratio of LORA MIC90 to MABA MIC90

## CO[C@H]1/C=C/O[C@@]2(C)Oc3c(C)c(O)c4c(=O)c(c5oc6cc(N7CCC(CC(=O)O)CC7)cc(OCc7ccc(CN8CCOCC8)cc7)c6nc-5c4c3C2=O)NC(=O)/C(C)=C\C=C\[C@H](C)[C@H](O)[C@@H](C)[C@@H](O)[C@@H](C)[C@H](OC(C)=O)[C@@H]1C [Compound 17l, 2-{1-[(7S,9E,11S,12R,13S,14R,15R,16R,17S,18S,19E,21Z)-13-(acetyloxy)-2,15,17-trihydroxy-11-methoxy-3,7,12,14,16,18,22-heptamethyl-32-{[4-(morpholin-4-ylmethyl)phenyl]methoxy}-6,23,37-trioxo-8,27,38-trioxa-24,34-diazahexacyclo-[23.11.1.1^4,7.0^5,36.0^26,35.0^28,33]octatriaconta-1,3,5(36)9,19,21,25,28,30,32,34-undecaen-30-yl]piperidin-4-yl)acetic acid]
[1]
  MBC: >0.1 µM
β-S450L (RIF^R) MTB RNAP
  IC50: 22 µM
[2]
  MIC90 LORA Rel to RMP: 31
  MIC90: 0.843 µM (≈ 0.954 µg/mL)
  MIC90 LORA/MABA: 4.5

## CO[C@H]1/C=C/O[C@@]2(C)Oc3c(C)c(O)c4c(=O)c(c5oc6cc(N7CCN(C(=O)c8cccc(-c9ccccn9)c8)CC7)cc(OCc7ccc(CN8CCOCC8)cc7)c6nc-5c4c3C2=O)NC(=O)/C(C)=C\C=C\[C@H](C)[C@H](O)[C@@H](C)[C@@H](O)[C@@H](C)[C@H](OC(C)=O)[C@@H]1C [Compound 17r, (7S,9E,11S,12R,13S,14R,15R,16R,17S,18S,19E,21Z)-2,15,17-trihydroxy-11-methoxy-3,7,12,14,16,18,22-heptamethyl-32-{[4-(morpholin-4-ylmethyl)phenyl]methoxy}-6,23,37-trioxo-30-(4-{[3-(pyridin-2-yl)phenyl]carbonyl}piperazin-1-yl)-8,27,38-trioxa-24,34-diazahexacyclo[23.11.1.1^4,7.0^5,36.0^26,35.0^28,33]octatriaconta-1,3,5(36)9,19,21,25,28,30,32,34-undecaen-13-yl acetate]
[1]
  MBC99 Day 7 (Lux Assay) MBC Rel to RMP: 0.46
  MBC: 0.205 µM
β-S450L (RIF^R) MTB RNAP
  IC50: 77 µM
[2]
  MIC90 LORA Rel to RMP: 2.60
  MIC90: 0.13 µM
  MIC90 LORA/MABA: 5.7

## CO[C@H]1/C=C/O[C@@]2(C)Oc3c(C)c(O)c4c(=O)c(c5oc6cc(N7CCC(CC(=O)O)CC7)cc(N7CCC(CC(=O)O)CC7)c6nc-5c4c3C2=O)NC(=O)/C(C)=C\C=C\[C@H](C)[C@H](O)[C@@H](C)[C@@H](O)[C@@H](C)[C@H](OC(C)=O)[C@@H]1C [Compound 17v, 2-{1-[(7S,9E,11S,12R,13S,14R,15R,16R,17S,18S,19E,21Z)-13-(acetyloxy)-32-[4-(carboxymethyl)piperidin-1-yl]-2,15,17-trihydroxy-11-methoxy-3,7,12,14,16,18,22-heptamethyl-6,23,37-trioxo-8,27,38-trioxa-24,34-diazahexacyclo-[23.11.1.1^4,7.0^5,36.0^26,35.0^28,33]octatriaconta-1,3,5(36)9,19,21,25,28,30,32,34-undecaen-30-yl]piperidin-4-yl)acetic acid]
[1]
  MBC: >0.1 µM
β-S450L (RIF^R) MTB RNAP
  IC50: 66 µM
